A short description of one series: clinical. The settings on record: human; for AUC(0-inf) / AUC(0-t) / Cmax / Tmax / half-life: both sexes, 80 mg. The series is classed as in vivo. The procedure:
[…] […] N=58 healthy adult (male and female) subjects were enrolled. Dosing occurred in two groups. […] PK/statistics: PK parameters were calculated using standard noncompartmental approaches. […] The final ANOVA models included group, sequence, treatment, and period nested within group as fixed effects and subject nested within group-by-sequence as a random effect. The treatment-by-group term was excluded from the models for the groups combined, to be conservative.

The nature of series [1]: Plasma PK of TH9507 in simvastatin studies (ELISA). The series is classed as in vivo, human. The procedure: 2 ml of TH9507 (1 mg/ml injectable solution) was administered by subcutaneous injection under fasting conditions once daily for 7 consecutive days (daily dose of 2 mg TH9507).
N=58 healthy adult (male and female) subjects were enrolled. Dosing occurred in two groups.
PK/statistics: PK parameters were calculated using standard noncompartmental approaches.

The next series has as its system CYP3A. The series is described as follows: Impact of TH9507 on CYP3A activity (simvastatin drug interaction studies). The series is classed as in vivo, human. The settings on record: 2 mg TH9507 days 1 to 7, 80 mg simvastatin as CYP3A substrate on Day 6. The text has this:
The final ANOVA models included group, sequence, treatment, and period nested within group as fixed effects and subject nested within group-by-sequence as a random effect. The treatment-by-group term was excluded from the models for the groups combined, to be conservative.

Setting [2] is: both sexes, human, plasma, sc, 2 mg.

SMILES strings stand for the structures.

Usually AUC(0-inf) stands for the area under the concentration-time curve extrapolated to infinity. Read a high AUC(0-inf) as high exposure. The AUC(0-t) is exposure summed from dosing to a finite time, without extrapolation to infinity. Lower therefore signals low exposure. Usually Cmax stands for the peak of the concentration-time curve. As usually defined, the Tmax is the time at which the peak concentration occurs. `CCC(C)(C)C(=O)O[C@H]1C[C@@H](C)C=C2C=C[C@H](C)[C@H](CC[C@@H](O)C[C@@H](O)CC(=O)O)[C@H]21` [Simvastatin Acid, simvastatin acid]: in the series “clinical” (in vivo, po), the AUC(0-inf) is 46.8 ng·h/mL, the AUC(0-t) was 43.4 ng·h/mL, the Cmax came out at 4.33 ng/mL and the Tmax came to 4.5 h. Besides, the half-life in the series “clinical” (in vivo, po) was 8.07 h. Moreover, in the series “clinical” (in vivo, sc), the AUC(0-inf) amounted to 39.9 ng·h/mL, the AUC(0-t) amounted to 37.5 ng·h/mL, the Cmax worked out at 4.28 ng/mL and the Tmax is 4.5 h. In addition, the half-life in “clinical” (in vivo, sc) was 6.91 h. For the same compound, in the series “clinical” (both, in vivo), the “AUC0-inf, A/B Ratio (%)” value was found to be 85.2%; the “AUC0-t, A/B Ratio (%)” value was 86.3%; the “Cmax, A/B Ratio (%)” value is 99.0%.
For `CCC(C)(C)C(=O)O[C@H]1C[C@@H](C)C=C2C=C[C@H](C)[C@H](CC[C@@H]3C[C@@H](O)CC(=O)O3)[C@H]21` [Simvastatin, (1S,3R,7S,8S,8aR)-8-{2-[(2R,4R)-4-hydroxy-6-oxooxan-2-yl]ethyl}-3,7-dimethyl-1,2,3,7,8,8a-hexahydronaphthalen-1-yl 2,2-dimethylbutanoate, reference compound], the half-life was 8.56 h in “clinical” (plasma, po, read-out: T1/2, Treatment B (converted)) and 7.62 h in “clinical” (plasma, sc, read-out: T1/2, Treatment A (converted)).
As for `CC/C=C/CC(=O)N[C@@H](Cc1ccc(O)cc1)C(=O)N[C@@H](C)C(=O)N[C@@H](CC(=O)O)C(=O)N[C@@H](C)C(=O)N[C@H](C(=O)N[C@@H](Cc1ccccc1)C(=O)N[C@H](C(=O)N[C@@H](CC(N)=O)C(=O)N[C@@H](CO)C(=O)N[C@@H](Cc1ccc(O)cc1)C(=O)N[C@@H](CCCNC(=N)N)C(=O)N[C@@H](CCCCN)C(=O)N[C@H](C(=O)N[C@@H](CC(C)C)C(=O)NCC(=O)N[C@@H](CCC(N)=O)C(=O)N[C@@H](CC(C)C)C(=O)N[C@@H](CO)C(=O)N[C@@H](C)C(=O)N[C@@H](CCCNC(=N)N)C(=O)N[C@@H](CCCCN)C(=O)N[C@@H](CC(C)C)C(=O)N[C@@H](CC(C)C)C(=O)N[C@@H](CCC(N)=O)C(=O)N[C@@H](CC(=O)O)C(=O)N[C@H](C(=O)N[C@@H](CCSC)C(=O)N[C@@H](CO)C(=O)N[C@@H](CCCNC(=N)N)C(=O)N[C@@H](CCC(N)=O)C(=O)N[C@@H](CCC(N)=O)C(=O)NCC(=O)N[C@@H](CCC(=O)O)C(=O)N[C@@H](CO)C(=O)N[C@@H](CC(N)=O)C(=O)N[C@@H](CCC(N)=O)C(=O)N[C@@H](CCC(=O)O)C(=O)N[C@@H](CCCNC(=N)N)C(=O)NCC(=O)N[C@@H](C)C(=O)N[C@@H](CCCNC(=N)N)C(=O)N[C@@H](C)C(=O)N[C@@H](CCCNC(=N)N)C(=O)N[C@@H](CC(C)C)C(N)=O)[C@@H](C)CC)C(C)C)[C@@H](C)O)[C@@H](C)CC` [TH9507, (hexenoyl trans-3)hGRF(1-44)NH2], the Tmax in series [1] (TH9507 2 mg s.c. once daily, day 6 samples, simvastatin studies, median) stood at 9 min. In series [1] (setting [2]), this compound had an AUC(0-inf) of 1.05 ng·h/mL, an AUC(0-t) of 0.888 ng·h/mL, a Cmax of 3.36 ng/mL and a half-life of 8.4 min. The “impact on CYP3A activity” value in the series with CYP3A is “not significant”.

These data come from patent US20100267636A1, “USE OF CYTOCHROME P450-METABOLIZED DRUGS AND GRF MOLECULES IN COMBINATION THERAPY” (THERATECHNOLOGIES INC., priority 2009, published 2010).
